According to patent US12239643B2, “Therapeutic agent for inflammatory diseases, autoimmune diseases, fibrotic diseases, and cancer diseases” (MEIJI SEIKA PHARMA CO., LTD., priority 2018, dated 2025):

Columns and labels:
[1] = system: oxazolone-induced auricle edema, BALB/c mice; experiment: Mouse delayed type hypersensitivity (DTH) model (topical); type: in vivo; settings: 20 μL applied to auricle, 24 hours after application
Description: Evaluation was carried out using female BALB/c mice (7 to 8 weeks of age). First, the hair of the abdomen of the mice was treated with a hair clipper, and then 150 μL of a 3% oxazolone acetone/ethanol solution was applied to the abdomen as a hapten. Five days later, 20 μL/ear of a 1% oxazolone.acetone/ethanol solution was applied to the outer surface of the auricle of both ears of the mouse to induce inflammation. Thirty minutes after the start of inflammation induction, 20 μL of the test compound dissolved in an acetone/ethanol solution was applied to the auricle. A 1% oxazolone was not applied to the blank. The control was one in which 1% oxazolone was applied and only an acetone/ethanol solution was applied without using the test compound. The auricle thickness 24 hours after application of the test compound was measured with a dial thickness gauge, and the value obtained by subtracting the blank value was used to calculate the edema suppression rate by the following formula. Edema Suppression Rate (%)={1−(Value at Addition of Each Test Compound−Blank Value)/(Control Value−Blank Value)}×100 The measurement results obtained by measuring the edema suppression rate at the time of topical administration of each test compound by the above method were evaluated in accordance with the following evaluated basis; A: 60% or more, B: 40% or more and less than 60%, and C: less than 40%.

TNFα [2] = experiment: Cytokine suppression using whole human blood: TNFα (lipopolysaccharide stimulus); type: cell-based; settings: read-out: TNFα Inhibitory Activity, Human Whole Blood (Test Example 3)
Description: The test compound dissolved in dimethyl sulfoxide was added to a 96-well plate, and RPMI-1640 medium and human peripheral blood containing sodium heparin were added, followed by culture at 37° C. under 5% CO2 for 1 hour. A medium containing only dimethyl sulfoxide instead of the test compound was added to the control well. To each well, lipopolysaccharide (final concentration 10 ng/mL) as a TNFα production stimulant, or phytohaemagglutinin (final concentration 20 μg/mL) as an IL-17A production stimulant, or CytoStim reagent ( 1/100 concentration) and CD28 antibody (final concentration 2.5 ng/mL) as an IL-4 production stimulant and an IL-5 production stimulant were added, followed by culture at 37° C. under 5% CO2. The culture was carried out for about 18 hours for the evaluation of the amount of TNFα, and for about 48 hours for the evaluation of the amounts of IL-17A, IL-4, and IL-5.
After collecting the culture supernatant after culturing, the amount of each cytokine was measured by the sandwich ELISA method. The cytokine production suppression rate (inhibition rate) by the test compound was calculated by the following formula from the cytokine production amount when the test compound was added, with the cytokine production amount for the control well as 100%. Inhibition Rate={1−(Cytokine Amount at Addition of Each Test Compound)/(Cytokine Amount for Control Well)}×100
In addition, the cytokine inhibitory activity (concentration for the inhibition rate of 50%) of the test compound was calculated from the inhibition curves based on the inhibition rates for various concentrations of the test compound.
The measurement results obtained by measuring the TNFα inhibitory activity and IL-5 inhibitory activity (50% inhibitory concentration) of the test compounds by the above method were evaluated in accordance with the following evaluated basis; A: less than 100 nM, B: 100 nM or more and less than 500 nM, and C: 500 nM or more. In addition, the measurement results obtained by measuring the IL-17A inhibitory activity and IL-4 inhibitory activity (50% inhibitory concentration) of the test compounds were evaluated in accordance with the following evaluated basis; A: less than 500 nM, B: 500 nM or more and less than 5000 nM, and C: 5000 nM or more.

TNFα [3] = experiment: Cytokine suppression using human peripheral blood mononuclear cells: TNFα; type: cell-based; settings: read-out: TNFα Inhibitory Activity, Human PBMC (Test Example 4)
Description: First, peripheral blood mononuclear cells (PBMC) were separated from whole blood by specific gravity centrifugation. Then, the isolated peripheral blood mononuclear cells were added to RPMI-1640 medium (containing 10% fetal bovine serum, penicillin, streptomycin, L-glutamine, and 2-mercaptoethanol), and cultured in a 96-well plate at 37° C. under 5% CO2 for 0 to 1 hour. The test compound dissolved in dimethyl sulfoxide was added to each well, followed by further culture at 37° C. under 5% CO2 for 1 hour. A medium containing only dimethyl sulfoxide instead of the test compound was added to the control well. To each well, lipopolysaccharide (final concentration 1 ng/mL) as a TNFα production stimulant and an IL-23 production stimulant, or concanavalin A (final concentration 20 μg/mL) as an IL-17A production stimulant was added, followed by culture at 37° C. under 5% CO2. In addition, as IL-4 production stimulus, IL-5 production stimulus, and IL-13 production stimulus, PBMC was seeded on a 96-well plate previously coated with a CD3 antibody (final concentration 3 μg/mL), and a CD28 antibody (final concentration 5 ng/mL) was added. The culture was carried out for about 18 hours for the evaluation of the amounts of TNFα and IL-23, and about 48 hours for the evaluation of the amounts of IL-17A, IL-4, IL-5, and IL-13. After collecting the culture supernatant after culturing, the amount of each cytokine was measured by the sandwich ELISA method in the same manner as in Test Example 3, and the cytokine production suppression rate (inhibition rate) and the cytokine inhibitory activity (concentration for the inhibition rate of 50%) of each test compound were calculated.
The measurement results obtained by measuring the TNFα inhibitory activity and IL-5 inhibitory activity (50% inhibitory concentration) of the test compounds by the above method were evaluated in accordance with the following evaluated basis; A: less than 10 nM, B: 10 nM or more and less than 100 nM, and C: 100 nM or more. In addition, the measurement results obtained by measuring the IL-17A inhibitory activity, IL-23 inhibitory activity, IL-4 inhibitory activity, and IL-13 inhibitory activity (50% inhibitory concentration) of the test compounds were evaluated in accordance with the following evaluated basis; A: less than 500 nM, B: 500 nM or more and less than 5000 nM, and C: 5000 nM or more.

[4] = Homo sapiens, human whole blood
[5] = human PBMC, lipopolysaccharide 1 ng/mL

Structure (SMILES) | Mouse DTH Model (Test Example 11), Topical: edema suppression rate [1] | IC50 (TNFα [2]; [4]) | IC50 (TNFα [3]; Homo sapiens, PBMC) | IC50 (TNFα [2]; Homo sapiens) | IC50 (TNFα [3]; [5]) | IC50 (TNFα [2]; human whole blood)
FC(F)(F)Oc1ccc(-c2nccs2)c2oc(N3CC4CC(C3)N4)nc12 [Example 29, 2-(3,6-Diazabicyclo[3.1.1]heptan-3-yl)-7-(thiazol-2-yl)-4-(trifluoromethoxy)benzo[d]oxazole] | A (A: 60% or more) | < 0.1 µM |  |  |  | 
CCOc1cc([C@@H](CS(C)(=O)=O)N2C(=O)c3cccc(NC(C)=O)c3C2=O)ccc1OC [apremilast, reference compound] |  |  | 0.01 to 0.1 µM | > 0.5 µM |  | 
CC(C)(O)C(F)(F)Oc1ccc(-c2nccs2)c2oc(N3CC4CC(C3)N4)nc12 [Example 248, 1-((2-(3,6-Diazabicyclo[3.1.1]heptan-3-yl)-7-(thiazol-2-yl)benzo[d]oxazol-4-yl)oxy)-1,1-difluoro-2-methylpropan-2-ol] | A (A: 60% or more) | < 0.1 µM |  |  | < 0.01 µM | 
CC(O)C(F)(F)Oc1ccc(-c2nccs2)c2oc(N3CC4CC(C3)N4)nc12 (single isomer, unassigned) [Example 252, 1-((2-(3,6-Diazabicyclo[3.1.1]heptan-3-yl)-7-(thiazol-2-yl)benzo[d]oxazol-4-yl)oxy)-1,1-difluoropropan-2-ol] | B (B: 40% or more and less than 60%) |  |  |  | < 0.01 µM | < 0.1 µM
